Results on eight compounds are retold here after ChEMBL document CHEMBL1201862, “PubChem BioAssay data set” (2004).

Some test systems named below: HL-60; OVCAR-3; A549; M14; SNB-75; HCT-15; SK-MEL-5; OVCAR-8; K562; UACC-62; NCI-H226; KM12; HCC 2998; SK-MEL-28; SNB-19; LOX IMVI; PC-3; MOLT-4; U-251; HOP-92.
Holding throughout (assay): DTP human tumour cell line panel, 48 h

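Cultured in 96-well plates, cells were exposed to test compound for 48 hours across five concentrations. GI50 marks 50% less growth.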 The source made the active and inactive calls. Cut-off read from the data, not from the text of the source: active = GI50 up to about 1.1 µM and inactive = higher. Bounds are passed on as bounds.

The GI50 is the concentration at which growth is held to half of that of the control. With `C/C=C1/CN2CCC34c5ccccc5N(C)C23C2CC1C4(C(=O)OC)C(OC(C)=O)O2` (stereo not given), the GI50 is > 100 µM (inactive) with HL-60; > 100 µM (inactive) with OVCAR-3; > 100 µM (inactive) in the experiment with A549; > 100 µM (inactive) in the experiment on M14; > 100 µM (inactive) in the experiment on SNB-75; more than 100 µM in the experiment with HCT-15. In addition, the GI50 with SK-MEL-5, in the experiment with OVCAR-8, in the experiment with K562, with UACC-62, with NCI-H226 and in the experiment with KM12 was > 100 µM (inactive) each time. For the same compound, the GI50 with HCC 2998, in the experiment with SK-MEL-28, in the experiment with SNB-19, in the experiment on LOX IMVI, in the experiment with PC-3 and in the experiment with MOLT-4 was > 100 µM (inactive) each time. The GI50 with U-251 and in the experiment on HOP-92 was > 100 µM (inactive) each time.

Consider `CCNC(=S)N/N=C(/C)c1cccc(/C(C)=N\NC(=S)NCC)n1`, for which the GI50 in the experiment with HL-60 is 0.57 µM (active); in the experiment on OVCAR-3, 0.366 µM (active); with A549 it was 0.719 µM (active); with M14 it was 1.2 µM (inactive); with SNB-75 it was 14.9 µM (inactive); in the experiment with HCT-15 it was 0.493 µM. The GI50 in the experiment on SK-MEL-5 was 0.774 µM (active); in the experiment with OVCAR-8, 0.345 µM (active); in the experiment with K562, 1.13 µM (inactive); with UACC-62, 1.09 µM (active); in the experiment with NCI-H226 it was 0.333 µM (active); with KM12, 0.593 µM (active). Also, the GI50 with HCC 2998 is 3.56 µM (inactive); with SK-MEL-28, 2.38 µM (inactive); in the experiment with SNB-19, 5.48 µM (inactive); in the experiment on LOX IMVI it was 0.373 µM (active); with PC-3 it was 0.614 µM (active); with MOLT-4 it was 0.365 µM (active). The GI50 in the experiment on U-251 was 0.553 µM (active); in the experiment with HOP-92, 1.69 µM (inactive).

Take `Cc1cccc2c1C(=O)[C@](C)([C@]1(C)Nc3cccc(C)c3C1=O)N2`: the GI50 with HL-60 is < 0.01 µM (active); in the experiment with OVCAR-3, 29.7 µM (inactive); in the experiment on A549 it was 26.4 µM (inactive); in the experiment with M14, 33.9 µM (inactive); in the experiment on SNB-75, 11 µM (inactive); with HCT-15, 18.2 µM. Besides, the GI50 in the experiment on SK-MEL-5 was 29.4 µM (inactive); in the experiment with OVCAR-8 it was 24 µM (inactive); in the experiment with K562, 30.8 µM (inactive); in the experiment with UACC-62, 28.1 µM (inactive); in the experiment on NCI-H226 it was 33 µM (inactive); in the experiment on KM12, 35.6 µM (inactive). Moreover, the GI50 with HCC 2998 was 31.9 µM (inactive); in the experiment with SK-MEL-28, 37.6 µM (inactive); in the experiment on SNB-19, 27.3 µM (inactive); in the experiment on LOX IMVI, 29.3 µM (inactive); with PC-3, 14.4 µM (inactive); in the experiment with MOLT-4 it was 23.3 µM (inactive). Moreover, the results for the GI50 in the experiment with U-251 and in the experiment on HOP-92 were 60.3 µM (inactive) and 27.3 µM (inactive), respectively.

On to `Cc1c2oc3c(C)cnc(C(=O)NC4C(=O)NC(C(C)C)C(=O)N5CCCC5C(=O)N(C)CC(=O)N(C)C(C(C)C)C(=O)OC4C)c3nc-2c(C(=O)NC2C(=O)NC(C(C)C)C(=O)N3CCCC3C(=O)N(C)CC(=O)N(C)C(C(C)C)C(=O)OC2C)c(N)c1=O` (stereo not given), for which the GI50 is 0.769 µM (active) in the experiment on HL-60; 10.4 µM (inactive) with OVCAR-3; 3.37 µM (inactive) in the experiment on A549; 3.4 µM (inactive) with M14; 6.41 µM (inactive) in the experiment on SNB-75; 21 µM in the experiment with HCT-15. The GI50 is 1.04 µM (active) in the experiment with SK-MEL-5; 5.57 µM (inactive) in the experiment on OVCAR-8; 0.231 µM (active) in the experiment on K562; 1.32 µM (inactive) in the experiment with UACC-62; 2.65 µM (inactive) with NCI-H226; 5.94 µM (inactive) in the experiment on KM12. For the same compound, the GI50 in the experiment on HCC 2998 is 2.67 µM (inactive); in the experiment on SK-MEL-28, 1.67 µM (inactive); in the experiment with SNB-19, 0.682 µM (active); in the experiment on LOX IMVI it was 0.348 µM (active); in the experiment with PC-3, 2.67 µM (inactive); with MOLT-4, 0.138 µM (active). Moreover, the GI50 in the experiment on U-251 is 0.931 µM (active); with HOP-92 it was 2.84 µM (inactive).

Consider `COc1ccc(/C=C2\C[C@H]3[C@@H]4CCC5=C/C(=N/O)CC[C@]5(C)[C@H]4CC[C@]3(C)\C2=N\O)cc1`, for which the GI50 was < 0.01 µM (active) with HL-60; 10.2 µM (inactive) in the experiment with OVCAR-3; 5.01 µM (inactive) in the experiment on A549; 12.4 µM (inactive) in the experiment on M14; 19.7 µM (inactive) in the experiment on SNB-75; 10.6 µM in the experiment on HCT-15. The GI50 in the experiment on SK-MEL-5 was 11 µM (inactive); with OVCAR-8, 9.42 µM (inactive); with K562 it was 6.47 µM (inactive); in the experiment with UACC-62, 14.5 µM (inactive); with NCI-H226, 19.1 µM (inactive); with KM12 it was 12.2 µM (inactive). Moreover, the GI50 in the experiment with HCC 2998 is 15.8 µM (inactive); with SK-MEL-28, 61.8 µM (inactive); in the experiment on SNB-19, 20 µM (inactive); in the experiment on LOX IMVI, 17.9 µM (inactive); in the experiment with PC-3 it was 8.17 µM (inactive); in the experiment with MOLT-4, 6.7 µM (inactive). Further, the GI50 in the experiment with U-251 is 25.3 µM (inactive); in the experiment with HOP-92 it was 17.3 µM (inactive).

As to `C[C@H](CCC(=O)O)[C@H]1CC[C@H]2[C@@H]3[C@@H](O)C[C@@H]4C[C@H](O)CC[C@]4(C)[C@H]3CC[C@]12C`, the GI50 was 63.5 µM (inactive) in the experiment with HL-60; 60.8 µM (inactive) with OVCAR-3; 61.4 µM (inactive) in the experiment with A549; 95.3 µM (inactive) with M14; > 100 µM (inactive) with SNB-75; 67.3 µM in the experiment with HCT-15. Moreover, the GI50 is 62.1 µM (inactive) in the experiment on SK-MEL-5; 73.8 µM (inactive) with OVCAR-8; 69.8 µM (inactive) in the experiment on K562; 76.2 µM (inactive) with UACC-62; > 100 µM (inactive) in the experiment on NCI-H226; 60 µM (inactive) in the experiment on KM12. Further, the GI50 with HCC 2998 was > 100 µM (inactive); in the experiment on SK-MEL-28, 98.6 µM (inactive); in the experiment on SNB-19, > 100 µM (inactive); in the experiment with LOX IMVI, > 100 µM (inactive); in the experiment on PC-3, 45.4 µM (inactive); with MOLT-4, 89.7 µM (inactive). Also, the GI50 in the experiment on U-251 was 58.6 µM (inactive); with HOP-92, > 100 µM (inactive).

On to `CCOC(=O)C(NCc1ccc2c(c1)OCO2)(NC(=O)c1ccccc1)C(F)(F)F` (stereo not given), for which the GI50 was 16.9 µM (inactive) in the experiment on HL-60; > 100 µM (inactive) with OVCAR-3; 71 µM (inactive) with A549; > 100 µM (inactive) in the experiment with M14; > 100 µM (inactive) in the experiment on SNB-75; more than 100 µM with HCT-15. For the same compound, the GI50 in the experiment on SK-MEL-5 was > 100 µM (inactive); in the experiment on OVCAR-8, > 100 µM (inactive); in the experiment on K562, 44.4 µM (inactive); in the experiment with UACC-62, > 100 µM (inactive); in the experiment on NCI-H226, > 100 µM (inactive); in the experiment on KM12, 88.1 µM (inactive). The GI50 with HCC 2998 was > 100 µM (inactive); in the experiment on SK-MEL-28 it was > 100 µM (inactive); in the experiment with SNB-19, > 100 µM (inactive); with LOX IMVI it was > 100 µM (inactive); with PC-3, 65 µM (inactive); in the experiment with MOLT-4 it was 18 µM (inactive). Moreover, the GI50 with U-251 is > 100 µM (inactive); with HOP-92, 41.9 µM (inactive).

`C[C@@](Br)(C(=O)O)[C@H](Br)C(=O)O`: the GI50 was > 100 µM (inactive) with HL-60; > 100 µM (inactive) in the experiment on OVCAR-3; > 100 µM (inactive) in the experiment on A549; > 100 µM (inactive) in the experiment with M14; 81.3 µM (inactive) with SNB-75; more than 100 µM in the experiment on HCT-15. Moreover, the GI50 in the experiment with SK-MEL-5, in the experiment with OVCAR-8, in the experiment on K562, in the experiment with UACC-62, with NCI-H226 and in the experiment with KM12 was > 100 µM (inactive) each time. The GI50 with HCC 2998, in the experiment on SK-MEL-28, in the experiment on SNB-19, in the experiment on LOX IMVI, with PC-3 and in the experiment with MOLT-4 was > 100 µM (inactive) in each case. The GI50 in the experiment with U-251 and in the experiment with HOP-92 was > 100 µM (inactive) in each case.
